MIC data for eight molecules are collected here from article PMC5780498, “Discovery of novel bacterial topoisomerase I inhibitors by use of in silico docking and in vitro assays” (Scientific Reports, 2018).

This experiment relates to M. smegmatis clone overexpressing recombinant MtbTopI (M+ strain). The experiment can be described thus: microbe, parasite or virus in culture. The following applies: Mycolicibacterium smegmatis. The class given is cell-based, Mycobacterium smegmatis.
Setting [1] is: 48 h, read-out: M+ Growth Inhibition (MIC).
The mark [2] stands for this setting: read-out: M+ Growth Inhibition with TZ (MIC).

Structures are written as SMILES. In brackets after ≈: the same amount, converted by molar mass. Like-named read-outs stand apart in the source and are kept apart here. Where only a bound is given, the exact number is not on record here.

On to `Cc1c(C(=O)N2CCC(c3nnc(-c4nccc5ccccc45)o3)CC2)oc2ccccc12` [Compound 2], for which the MIC by setting is: under setting [1], > 250 µM; under setting [2], 62.5 µM (≈ 27.4 µg/mL).
In the same order, the values of `COc1ccc2c(c1)NC1(CCN(C(=O)Cc3c[nH]c4ccccc34)CC1)NS2(=O)=O` [Compound 3] are > 250 µM and 62.5 µM (≈ 27.5 µg/mL).
In the same order, the values of `Cc1ccc(CN2C[C@]34C=C[C@H](O3)C(C(=O)N3CCn5cccc5C3)C4C2=O)cc1C` (stereo partly shown) [Compound 7] are > 500 µM and > 500 µM.
The matching figures for `Cc1cc2oc(C(=O)N3CCC(c4nc5ccccc5[nH]4)CC3)c(C)c2cc1C` [Compound 8]: > 500 µM and 31.3 µM (≈ 12.1 µg/mL).
In the case of `Cc1ccc2[nH]c(C3CCN(C(=O)c4oc5ccc(C)cc5c4C)CC3)nc2c1` [Compound 9], the MIC is > 500 µM under setting [1] and 31.3 µM (≈ 12.1 µg/mL) under setting [2].
Take `Cc1ccc2oc(C(=O)N3CCC(O)(c4cccc(C(F)(F)F)c4)CC3)c(C)c2c1` [Compound 10]: the MIC is > 500 µM under setting [1] and 46.9 µM (≈ 19.6 µg/mL) under setting [2].
The matching figures for `Cc1c(C(=O)N2CCCCC2CCc2ccc(O)cc2)oc2c(F)cccc12` (stereo not shown) [Compound 11]: > 500 µM and 125 µM (≈ 47.7 µg/mL).
In the same order, the values of `Cc1ccc2c(C)c(C(=O)N3CCC4(CC(=O)c5ccccc5O4)C3)oc2c1` (stereo not shown) [Compound 12] are > 500 µM and > 500 µM.
